# Data: patent US8586591B2, “Aminopyrazine derivative and medicine” (Nippon Shinyaku Co., Ltd., priority 2009, dated 2013)
# Where a name gives a salt, the structure may show the parent alone.
# Legend:
# JAK3 tyrosine kinase = target: T1, JAK3 tyrosine kinase (Homo sapiens, UniProt P52333); assay: Test 1: inhibitory activity to JAK3 tyrosine kinase (ELISA); assay type: biochemical; conditions: 25 μM ATP in substrate solution, 30° C. for 1 hour, n=2
# T1 construct: purchased Carnabioscience Co
# T1 sequence (P52333 1-1124): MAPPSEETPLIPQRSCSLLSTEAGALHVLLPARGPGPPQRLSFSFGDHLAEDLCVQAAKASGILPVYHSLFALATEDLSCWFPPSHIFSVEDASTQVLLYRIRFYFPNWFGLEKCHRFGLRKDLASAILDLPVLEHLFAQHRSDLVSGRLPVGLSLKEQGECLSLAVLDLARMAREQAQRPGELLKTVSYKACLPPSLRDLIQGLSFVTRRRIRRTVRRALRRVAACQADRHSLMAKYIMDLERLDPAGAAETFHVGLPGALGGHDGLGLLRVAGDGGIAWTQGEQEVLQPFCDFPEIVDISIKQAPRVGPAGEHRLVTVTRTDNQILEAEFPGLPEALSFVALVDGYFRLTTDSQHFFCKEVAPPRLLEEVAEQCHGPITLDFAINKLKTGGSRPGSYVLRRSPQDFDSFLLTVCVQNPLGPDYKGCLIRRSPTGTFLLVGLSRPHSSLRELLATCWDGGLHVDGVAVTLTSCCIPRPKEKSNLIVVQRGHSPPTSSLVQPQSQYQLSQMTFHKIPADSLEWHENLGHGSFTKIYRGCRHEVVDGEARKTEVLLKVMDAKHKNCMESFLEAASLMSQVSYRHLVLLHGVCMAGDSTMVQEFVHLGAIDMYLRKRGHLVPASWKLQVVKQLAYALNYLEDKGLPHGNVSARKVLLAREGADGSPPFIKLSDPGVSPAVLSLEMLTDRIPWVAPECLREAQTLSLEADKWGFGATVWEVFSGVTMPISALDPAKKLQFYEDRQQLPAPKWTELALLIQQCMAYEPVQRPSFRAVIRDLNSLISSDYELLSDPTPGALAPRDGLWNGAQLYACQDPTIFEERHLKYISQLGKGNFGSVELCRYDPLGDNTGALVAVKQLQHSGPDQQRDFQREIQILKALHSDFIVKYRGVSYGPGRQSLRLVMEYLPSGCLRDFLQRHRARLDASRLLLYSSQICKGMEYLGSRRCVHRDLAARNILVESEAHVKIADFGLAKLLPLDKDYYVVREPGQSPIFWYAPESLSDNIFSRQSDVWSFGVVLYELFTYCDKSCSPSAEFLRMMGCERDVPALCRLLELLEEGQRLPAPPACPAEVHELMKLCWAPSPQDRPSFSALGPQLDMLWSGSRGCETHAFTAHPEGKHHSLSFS
# Procedure: Test 1: Test for inhibitory activity to JAK2 and JAK3 tyrosine kinase 1. […] The test material was dissolved in dimethylsulfoxide (DMSO) to be 10 mM, and further diluted with DMSO to be 100-fold concentrations for measurement (1000, 300, 100, 30, 10, 3, 1, 0.3, 0.1, 0.03, 0.01 μM). In addition, solutions diluted with an assay buffer up to 20 times were used as solutions of the test material. As a negative control, a solution of DMSO diluted 20 times with an assay buffer was used. […] 2. Measurement of the Activities of JAK2 and JAK3 Tyrosine Kinases The activity was determined by ELISA. […] The absorbance was measured by means of a micro-plate reader (BIO-RAD; Model 3550) at 450 nm. 3. Analysis of the Results of the Measurement The measured absorbance was subjected to a non-linear regression analysis by means of a SAS system (SAS Institute Inc.), and the concentration (IC50) of the test material which inhibited 50% of the activity of each tyrosine kinase was estimated.
# JAK2 tyrosine kinase = target: T2, JAK2 tyrosine kinase (Homo sapiens, UniProt O60674); assay: Test 1: inhibitory activity to JAK2 tyrosine kinase (ELISA); assay type: biochemical; conditions: 25 μM ATP in substrate solution, 30° C. for 1 hour, n=2
# T2 construct: purchased Carnabioscience Co
# T2 sequence (O60674 whole entry): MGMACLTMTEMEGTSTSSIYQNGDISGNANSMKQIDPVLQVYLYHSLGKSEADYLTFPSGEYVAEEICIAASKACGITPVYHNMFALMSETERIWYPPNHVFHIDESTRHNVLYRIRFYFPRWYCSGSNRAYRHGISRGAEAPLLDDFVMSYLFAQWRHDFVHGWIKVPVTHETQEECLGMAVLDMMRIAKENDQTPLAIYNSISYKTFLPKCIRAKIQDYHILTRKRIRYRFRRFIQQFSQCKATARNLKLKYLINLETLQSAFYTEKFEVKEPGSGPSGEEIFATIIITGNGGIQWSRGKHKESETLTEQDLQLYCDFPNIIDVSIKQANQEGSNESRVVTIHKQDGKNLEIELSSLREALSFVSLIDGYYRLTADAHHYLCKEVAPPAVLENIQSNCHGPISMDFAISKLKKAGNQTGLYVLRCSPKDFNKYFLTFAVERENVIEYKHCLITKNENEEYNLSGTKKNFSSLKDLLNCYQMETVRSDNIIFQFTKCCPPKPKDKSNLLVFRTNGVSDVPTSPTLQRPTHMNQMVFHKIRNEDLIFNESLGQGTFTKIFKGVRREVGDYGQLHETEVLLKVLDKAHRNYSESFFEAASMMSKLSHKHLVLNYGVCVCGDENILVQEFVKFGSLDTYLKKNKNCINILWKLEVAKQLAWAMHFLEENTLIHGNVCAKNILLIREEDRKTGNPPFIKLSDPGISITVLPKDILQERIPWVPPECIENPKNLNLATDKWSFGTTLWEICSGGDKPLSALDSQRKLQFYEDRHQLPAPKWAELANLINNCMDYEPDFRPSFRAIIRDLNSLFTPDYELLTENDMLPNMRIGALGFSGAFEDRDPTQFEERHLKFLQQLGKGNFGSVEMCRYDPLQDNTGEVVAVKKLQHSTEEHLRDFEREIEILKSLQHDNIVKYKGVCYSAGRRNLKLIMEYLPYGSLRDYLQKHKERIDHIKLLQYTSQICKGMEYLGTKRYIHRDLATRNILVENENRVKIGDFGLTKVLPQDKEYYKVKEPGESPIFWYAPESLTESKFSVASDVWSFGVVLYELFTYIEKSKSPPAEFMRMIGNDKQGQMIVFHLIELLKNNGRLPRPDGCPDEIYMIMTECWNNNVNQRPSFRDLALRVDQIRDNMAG
# Procedure: Test 1: Test for inhibitory activity to JAK2 and JAK3 tyrosine kinase 1. Preparation of Test Material
# The test material was dissolved in dimethylsulfoxide (DMSO) to be 10 mM, and further diluted with DMSO to be 100-fold concentrations for measurement (1000, 300, 100, 30, 10, 3, 1, 0.3, 0.1, 0.03, 0.01 μM). In addition, solutions diluted with an assay buffer up to 20 times were used as solutions of the test material. As a negative control, a solution of DMSO diluted 20 times with an assay buffer was used. As the assay buffer, 15 mM Tris-Cl (pH 7.5), 0.01 v/v % Tween-20, and 1 mM dithiothreitol were used.
# 2. Measurement of the Activities of JAK2 and JAK3 Tyrosine Kinases
# The activity was determined by ELISA. The solution of the test material (10 μl each; n=2) was placed in a streptavidine-coated 96 well plate (DELFIA Strip Plate 8×12 wells; Perkin Elmer), to which 20 μl each of substrate solution (625 nM biotin-labeled peptide substrate, 25 μM ATP, 25 mM MgCl2, 15 mM Tris-Cl (pH 7.5), 0.01 v/v % Tween-20, and 1 mM dithiothreitol), was added and stirred. Finally, 20 μl each of JAK2 tyrosine kinase (Carnabioscience Co.) (diluted to 0.75 nM with assay buffer) or JAK3 tyrosine kinase (Carnabioscience Co.) (diluted to 0.75 nM with assay buffer) was added, stirred and allowed to stand at 30° C. for 1 hour. The plate was washed 4 times with a washing buffer (50 mM Tris-Cl, pH 7.5, 150 mM NaCl, 0.02 v/v % Tween-20), and then a blocking buffer (0.1% Bovine Serum Albumin, 50 mM Tris-Cl, pH 7.5, 150 mM NaCl, 0.02 v/v % Tween-20)(150 μl each) was added for blocking at 30° C. for 30 minutes. Blocking buffer was removed, and there was added 100 μl each of horse radish peroxidase-labeled anti-phosphorylated tyrosin kinase antibody (BD Bioscience Co.) (diluted 10,000 times with blocking buffer). The plate was incubated at 30° C. for 30 minutes and then washed 4 times with a washing buffer, and 100 μl each of 3,3′,5,5′-tetramethylbenzidine (Sigma-Aldrich Co.) was added to develop color for 10 minutes. 0.1 M sulfuric acid (100 μl each) was added to stop the reaction. The absorbance was measured by means of a micro-plate reader (BIO-RAD; Model 3550) at 450 nm.
# 3. Analysis of the Results of the Measurement
# The measured absorbance was subjected to a non-linear regression analysis by means of a SAS system (SAS Institute Inc.), and the concentration (IC50) of the test material which inhibited 50% of the activity of each tyrosine kinase was estimated.
Molecule,IC50 (JAK3 tyrosine kinase) [nM],IC50 (JAK2 tyrosine kinase) [nM]
"C[C@H](Nc1cc(-c2cccnc2)cc(Nc2cnccn2)n1)c1ccc(F)cc1 [Example 5, (S)—N^2′-[1-(4-Fluorophenyl)ethyl]-N^6′-(pyrazin-2-yl)-3,4′-bipyridine-2′,6′-diamine hydrochloride]",62,0.62
"C[C@H](Nc1nc(Nc2cnccn2)cc(N2C[C@H](O)[C@@H](O)C2)n1)c1ccc(F)cc1 [Example 110, (3S,4S)-1-{2-[(S)-1-(4-Fluorophenyl)ethylamino]-6-(pyrazin-2-ylamino)pyrimidin-4-yl}pyrrolidin-3,4-diol]",44,0.67
"C[C@H](Nc1cc(-c2cnn(Cc3ccccc3)c2)cc(Nc2cnccn2)n1)c1ccc(F)cc1 [Example 113, (S)-4-(1-Benzyl-1H-pyrazol-4-yl)-N^2-[1-(4-fluorophenyl)ethyl]-N^6-(pyrazin-2-yl)pyridine-2,6-diamine]",200,4.9
"C[C@H](Nc1nc(Nc2cnccn2)cc(-c2cncc(C(N)=O)c2)n1)c1ccc(F)cc1 [Example 84, (S)-5-{2-[1-(4-Fluorophenyl)ethylamino]-6-(pyrazin-2-ylamino)pyrimidin-4-yl}nicotinamide]",170,2
"4-{2-[(1S)-1-(4-Fluorophenyl)ethylamino]-6-(pyrazin-2-ylamino)pyrimidin-4-yl}-1λ^6,4-thiomorpholin-1,1-dione [Example 226]",24,1.1
C[C@H](Nc1nc(Nc2cnccn2)cc(-c2cccc(C(N)=O)c2)n1)c1ccc(F)cc1 [Example 91],97,1.4
"C[C@H](Nc1nc(Nc2cnccn2)cc(-c2ccnc(F)c2)n1)c1ccc(F)cc1 [Example 93, (S)—N^2-[1-(4-Fluorophenyl)ethyl]-6-(2-fluoropyridin-4-yl)-N^4-(pyrazin-2-yl)pyrimidine-2,4-diamine]",220,3
"COC1CN(c2cc(Nc3cnccn3)nc(N[C@@H](C)c3ccc(F)cc3)n2)C1 [Example 183, (S)—N^2-[1-(4-Fluorophenyl)ethyl]-6-(3-methoxyazetidin-1-yl)-N^4-(pyrazin-2-yl)pyrimidine-2,4-diamine hydrochloride]",59,1.8
"C[C@H](Nc1cc(OCCO)cc(Nc2cnccn2)n1)c1ccc(F)cc1 [Example 12, (S)-2-{2-[1-(4-Fluorophenyl)ethylamino]-6-(pyrazin-2-ylamino)pyridin-4-yloxy}ethanol hydrochloride]",79,0.92
"COCCNC(=O)C1CN(c2cc(Nc3cnccn3)nc(N[C@@H](C)c3ccc(F)cc3)n2)C1 [Example 194, (S)-1-{2-[1-(4-Fluorophenyl)ethylamino]-6-(pyrazin-2-ylamino)pyrimidin-4-yl}-N-(2-methoxyethyl) azetidine-3-carboxamide]",84,0.79
"C[C@H](Nc1nc(Nc2cnccn2)cc(-c2ccc(C(N)=O)cc2)n1)c1ccc(F)cc1 [Example 80, (S)-4-{2-[1-(4-Fluorophenyl)ethylamino]-6-(pyrazin-2-ylamino)pyrimidin-4-yl}benzamide hydrochloride]",60,1.1
"CC(=O)NCCNc1cc(Nc2cnccn2)nc(N[C@@H](C)c2ccc(F)cc2)n1 [Example 78, (S)—N-(2-{2-[1-(4-Fluorophenyl)ethylamino]-6-(pyrazin-2-ylamino)pyrimidin-4-ylamino}ethyl) acetamide hydrochloride]",35,1.4
"C[C@H](Nc1nc(Nc2cnccn2)cc(N2CC(C(=O)NC3CC3)C2)n1)c1ccc(F)cc1 [Example 197, (S)—N-(Cyclopropyl)-1-{2-[1-(4-fluorophenyl)ethylamino]-6-(pyrazin-2-ylamino)pyrimidin-4-yl}azetidine-3-carboxamide]",58,1.6
"C[C@H](Nc1nc(NCC2CCCO2)cc(Nc2cnccn2)n1)c1ccc(F)cc1 (stereo partly drawn) [Example 68, N^2-[(S)-1-(4-Fluorophenyl)ethyl]-N^4-(pyrazin-2-yl)-N^6-[(tetra hydrofuran-2-yl)methyl]pyrimidine-2,4,6-triamine]",34,1.5
"C[C@H](Nc1nc(Nc2cnccn2)cc(N[C@@H](CO)C(N)=O)n1)c1ccc(F)cc1 [Example 109, (S)-2-{2-[(S)-1-(4-Fluorophenyl)ethylamino]-6-(pyrazin-2-ylamino)pyrimidin-4-ylamino}-3-hydroxypropanamide]",130,2.4
"C[C@H](Nc1nc(Nc2cnccn2)cc(N2CC(=O)NC(=O)C2)n1)c1ccc(F)cc1 [Example 17, (S)-4-{2-[1-(4-Fluorophenyl)ethylamino]-6-(pyrazin-2-ylamino)pyrimidin-4-yl}piperazine-2,6-dione]",340,4.4
"C[C@H](Nc1nc(Nc2cnccn2)cc(-c2ccccn2)n1)c1ccc(F)cc1 [Example 14, (S)—N^2-[1-(4-Fluorophenyl)ethyl]-N^4-(pyrazin-2-yl)-6-(pyridin-2-yl)pyrimidine-2,4-diamine]",120,1.9
"C[C@H](Nc1cc(N2CCOCC2)cc(Nc2cnccn2)n1)c1ccc(F)cc1 [Example 39, (S)—N^2-[1-(4-Fluorophenyl)ethyl]-4-morpholine-N^6-(pyrazin-2-yl)pyridine-2,6-diamine]",90,0.93
"C[C@H](Nc1nc(Nc2cnccn2)cc(O[C@H]2CCCC[C@@H]2O)n1)c1ccc(F)cc1 [Example 101, (1S,2S)-2-{2-[(S)-1-(4-Fluorophenyl)ethylamino]-6-(pyrazin-2-ylamino)pyrimidin-4-yloxy}cyclohexanol hydrochloride]",600,11
